Active and inactive are the calls of the source.
Tests used:
cells [1] = assay: cells
[2] = HEp-2 cell cytotoxicity, dose response, cytotoxicity control for RSV inhibitor project, HTS (AID 2410); assay type: functional; settings: human respiratory syncytial virus
[3] = microbe, parasite or virus in culture; assay type: functional; settings: Mycobacterium tuberculosis
[4] = target: Disintegrin and metalloproteinase domain-containing protein 17 (Homo sapiens, UniProt P78536); assay: ADAM17 protease inhibitors, dose response, counter-screen for ADAM10 exosite inhibitor project, biochemical, quenched FRET substrate (AID 743253)
[5] = A High Throughput Confirmatory Assay used to Identify Novel Compounds that Inhibit Mycobacterium Tuberculosis in the absence of Glycerol.; assay type: functional
cells [6] = assay type: functional
[7] = ADAM10 inhibitors, peptide cleavage, dose response, biochemical, QFRET (AID 743254);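 further: ADAM10 enzyme with the DM2 quenched FRET peptide as substrate; EDANS fluorescence gain as the protease cuts the substrate; inhibitor potency against ADAM10 proteolytic activity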
[8] = target: Sphingosine 1-phosphate receptor 3 (Homo sapiens, UniProt Q99500); assay: Dose response cell-based high throughput screening assay for antagonists of the Sphingosine 1-Phosphate Receptor 3 (S1P3). [Related pubchem assays: 1429, 485 ]; assay type: functional
[9] = target: 5-hydroxytryptamine receptor 1E (Homo sapiens, UniProt P28566); assay: Counterscreen assay for S1P3 antagonists: Dose response cell-based high throughput screening assay to identify antagonists of the 5-Hydroxytryptamine Receptor Subtype 1E (5HT1E). [Related pubchem assays: 1429, 485 ]; assay type: functional
[10] = target: Lysosomal acid glucosylceramidase (Homo sapiens, UniProt P04062); assay: Dose response cell-based high throughput screening assay to identify enhancers of beta-glucosidase activity. [Related pubchem assays: 784 ]; assay type: functional
[11] = target: T1, Replicative DNA helicase DnaB (Mycobacterium tuberculosis, UniProt P9WMR3); assay: DnaB intein splicing inhibitors, dose response, biochemical, cell-free fluorescence (AID 449749); assay type: functional
T1 sequence (P9WMR3 whole entry): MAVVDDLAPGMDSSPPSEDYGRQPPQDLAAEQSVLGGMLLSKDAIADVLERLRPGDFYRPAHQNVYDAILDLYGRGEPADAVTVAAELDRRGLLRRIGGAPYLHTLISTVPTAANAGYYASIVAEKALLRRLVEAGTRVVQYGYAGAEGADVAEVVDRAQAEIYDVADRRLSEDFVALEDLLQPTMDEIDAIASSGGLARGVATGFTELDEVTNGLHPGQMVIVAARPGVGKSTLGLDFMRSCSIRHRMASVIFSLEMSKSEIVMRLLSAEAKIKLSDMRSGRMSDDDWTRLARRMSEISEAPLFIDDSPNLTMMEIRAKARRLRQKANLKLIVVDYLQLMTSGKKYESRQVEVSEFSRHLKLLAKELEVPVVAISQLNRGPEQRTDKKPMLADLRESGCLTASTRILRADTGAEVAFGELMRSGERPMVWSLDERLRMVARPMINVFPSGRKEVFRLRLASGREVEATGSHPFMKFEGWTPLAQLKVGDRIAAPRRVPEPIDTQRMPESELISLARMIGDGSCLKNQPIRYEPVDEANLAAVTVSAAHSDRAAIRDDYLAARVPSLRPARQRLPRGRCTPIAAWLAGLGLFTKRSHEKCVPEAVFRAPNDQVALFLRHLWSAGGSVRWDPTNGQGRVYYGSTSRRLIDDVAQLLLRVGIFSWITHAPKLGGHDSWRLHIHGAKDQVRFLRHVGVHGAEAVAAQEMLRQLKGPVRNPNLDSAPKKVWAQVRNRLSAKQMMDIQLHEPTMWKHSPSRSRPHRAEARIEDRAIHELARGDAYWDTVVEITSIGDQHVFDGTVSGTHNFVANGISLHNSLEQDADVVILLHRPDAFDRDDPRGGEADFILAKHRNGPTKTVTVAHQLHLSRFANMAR

[12] = target: T2, Mannose-6-phosphate isomerase (Homo sapiens, UniProt P34949); assay: human PMI inhibitors, high substrate, primary screen, biochemical, fluorescence intensity, high mannose 6-phosphate (AID 1220)
T2 sequence (P34949 whole entry): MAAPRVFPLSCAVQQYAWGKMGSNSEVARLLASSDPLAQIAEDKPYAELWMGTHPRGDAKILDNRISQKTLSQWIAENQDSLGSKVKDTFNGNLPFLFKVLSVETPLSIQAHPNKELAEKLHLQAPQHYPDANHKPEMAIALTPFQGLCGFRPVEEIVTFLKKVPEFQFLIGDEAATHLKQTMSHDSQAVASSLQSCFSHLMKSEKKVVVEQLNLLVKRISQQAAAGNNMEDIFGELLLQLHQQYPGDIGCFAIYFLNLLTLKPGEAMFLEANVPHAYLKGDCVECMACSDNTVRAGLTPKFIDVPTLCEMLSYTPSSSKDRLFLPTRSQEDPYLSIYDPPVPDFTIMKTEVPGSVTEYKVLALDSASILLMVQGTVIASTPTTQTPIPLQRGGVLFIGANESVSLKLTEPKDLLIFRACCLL

Protein RecA = target: T3, Protein RecA (Mycobacterium tuberculosis, UniProt P9WHJ3); assay: Fluorescence Cell-Free Homogeneous Dose Retest to Identify Inhibitors of RecA-Intein Splicing Activity. [Related pubchem assays (depositor defined):AID2097, AID2223, AID489010, AID492950]; assay type: functional
T3 sequence (P9WHJ3 whole entry): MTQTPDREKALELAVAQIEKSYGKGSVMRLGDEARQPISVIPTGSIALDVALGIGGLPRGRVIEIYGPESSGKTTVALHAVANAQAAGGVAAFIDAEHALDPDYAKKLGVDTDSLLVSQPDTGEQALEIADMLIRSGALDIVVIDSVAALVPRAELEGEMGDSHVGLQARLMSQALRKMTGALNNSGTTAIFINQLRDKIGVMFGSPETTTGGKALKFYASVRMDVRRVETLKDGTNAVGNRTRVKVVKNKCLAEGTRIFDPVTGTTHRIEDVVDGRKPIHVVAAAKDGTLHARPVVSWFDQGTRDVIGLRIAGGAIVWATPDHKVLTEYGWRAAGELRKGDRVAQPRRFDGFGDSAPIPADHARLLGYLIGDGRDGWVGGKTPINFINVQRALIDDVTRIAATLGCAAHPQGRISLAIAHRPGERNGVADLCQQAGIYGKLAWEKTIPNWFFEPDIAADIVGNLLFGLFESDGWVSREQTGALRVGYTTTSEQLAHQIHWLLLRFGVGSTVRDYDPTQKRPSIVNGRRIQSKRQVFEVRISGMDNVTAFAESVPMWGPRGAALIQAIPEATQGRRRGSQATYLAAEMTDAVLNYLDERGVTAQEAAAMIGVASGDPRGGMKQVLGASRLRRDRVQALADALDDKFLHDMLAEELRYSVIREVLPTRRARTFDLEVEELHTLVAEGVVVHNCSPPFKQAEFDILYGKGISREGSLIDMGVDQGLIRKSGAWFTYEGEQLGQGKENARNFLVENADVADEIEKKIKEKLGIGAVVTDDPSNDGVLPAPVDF

[13] = THP-1 cell cytotoxicity, dose response, cytotoxicity control for non-replicating M. tuberculosis project (AID 489025); assay type: functional
[14] = target: T2, Mannose-6-phosphate isomerase; assay: inhibitors of human PMI, primary screen, biochemical, fluorescence intensity, coupled assay (AID 1209)
Procathepsin L = Procathepsin L (Homo sapiens, UniProt P07711)
Aspartyl aminopeptidase = target: T4, Aspartyl aminopeptidase (Plasmodium falciparum 3D7, UniProt Q8I2J3)
T4 sequence (Q8I2J3 whole entry): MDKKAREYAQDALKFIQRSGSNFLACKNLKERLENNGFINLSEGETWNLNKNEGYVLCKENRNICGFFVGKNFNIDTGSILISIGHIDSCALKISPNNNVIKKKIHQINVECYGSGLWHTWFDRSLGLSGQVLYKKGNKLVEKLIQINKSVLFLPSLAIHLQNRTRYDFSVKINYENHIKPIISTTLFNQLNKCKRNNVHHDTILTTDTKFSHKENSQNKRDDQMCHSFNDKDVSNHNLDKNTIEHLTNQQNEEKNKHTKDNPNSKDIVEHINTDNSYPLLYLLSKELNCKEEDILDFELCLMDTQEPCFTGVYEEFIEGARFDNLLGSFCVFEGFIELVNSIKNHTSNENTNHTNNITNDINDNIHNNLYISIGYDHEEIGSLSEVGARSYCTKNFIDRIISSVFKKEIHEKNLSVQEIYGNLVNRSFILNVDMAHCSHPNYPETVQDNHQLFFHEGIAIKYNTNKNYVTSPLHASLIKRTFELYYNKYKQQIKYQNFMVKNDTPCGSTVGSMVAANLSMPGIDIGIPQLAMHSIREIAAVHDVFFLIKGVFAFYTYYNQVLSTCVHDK

[15] = target: Melanin-concentrating hormone receptor 1 (Homo sapiens, UniProt Q99705); assay: Fluorescence-based counterscreen for antagonists of the G-protein coupled receptor 7 (GPR7): cell-based high throughput dose response assay to identify antagonists of the melanin-concentrating hormone receptor 1 (MCHR1).; assay type: functional
[16] = target: Neuropeptides B/W receptor type 1 (Homo sapiens, UniProt P48145); assay: Fluorescence-based dose response cell-based high throughput screening assay to identify antagonists of the G-protein coupled receptor 7 (GPR7). [Related pubchem assays: 1952 (Screening assay (GPR7 antagonists).), 1880 (Summary AID.)]; assay type: functional
[17] = target: Neuropeptide Y receptor type 1 (Homo sapiens, UniProt P25929); assay: Fluorescence-based counterscreen for agonists of NPY-Y2: cell-based high-throughput dose response assay for agonists of NPY-Y1.; assay type: functional
HEK293 = assay: Fluorescence-based counterscreen for potentiators or agonists of NPY-Y2: cell-based high-throughput dose response assay to identify inhibitors of cyclic nucleotide gated ion channel (CNGC) activity. In this assay, the parental HEK293 cell line transfected with a cyclic-nucleotide gated ion channel (CNGC)-based cAMP sensor is used to measure inhibition of isoproterenol-induced CNGC activity by test compound.; assay type: functional; settings: Homo sapiens;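 further: stimulus is 1 µM isoproterenol at EC100 plus PDE inhibitor Ro 20-1724 at 25 µM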
[18] = target: Neuropeptide Y receptor type 2 (Homo sapiens, UniProt P49146); assay: Fluorescence-based cell-based high-throughput dose response assay for agonists of NPY-Y2. [Related pubchem assays: 1703 (Screening assay (CNGC inhibitors).), 1359 (Screening assay (NPY-Y2 potentiators or agonists).), 1304 (Screening assay (NPY-Y1 potentiators or agonists).), 1710 (Screening assay (NPY-Y2 agonists).), 1791 (Summary AID.)]; assay type: functional
[19] = inhibitors of Bluetongue virus cytopathic effect, confirmation, arbovirus, BSR cells (AID 1250); assay type: functional;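 further: protection from viral cytopathic effect measured as cell viability by ATP luminescence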
[20] = target: T5, Heat shock factor protein 1 (Mus musculus, UniProt P38532); assay: inhibition of MG132-induced HSE-luciferase signal, confirmation, cell-based, NIH3T3, luminescence, dose retest (AID 2382); assay type: functional;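 further: NIH3T3 fibroblasts with HSF1-driven luciferase reporter stressed by proteasome inhibitor MG132; luminescence from HSF1-driven luciferase expression after 8 hours of MG132 stress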
T5 sequence (P38532 whole entry): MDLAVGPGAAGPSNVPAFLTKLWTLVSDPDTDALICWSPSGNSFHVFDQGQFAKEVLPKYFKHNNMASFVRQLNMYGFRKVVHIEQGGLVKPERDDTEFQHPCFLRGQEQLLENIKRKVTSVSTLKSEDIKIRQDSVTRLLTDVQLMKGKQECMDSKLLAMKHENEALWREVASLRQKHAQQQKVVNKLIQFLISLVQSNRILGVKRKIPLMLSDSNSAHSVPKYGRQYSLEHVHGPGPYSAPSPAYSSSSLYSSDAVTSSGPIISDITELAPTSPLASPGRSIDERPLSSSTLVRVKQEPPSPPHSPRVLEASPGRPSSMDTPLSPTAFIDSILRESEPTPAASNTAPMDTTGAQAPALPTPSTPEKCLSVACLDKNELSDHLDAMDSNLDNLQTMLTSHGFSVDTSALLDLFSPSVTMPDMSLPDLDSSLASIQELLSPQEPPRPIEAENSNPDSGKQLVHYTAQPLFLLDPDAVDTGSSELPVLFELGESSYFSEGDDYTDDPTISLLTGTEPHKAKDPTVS

Melanin-concentrating hormone receptor 1, sequence (Q99705 whole entry): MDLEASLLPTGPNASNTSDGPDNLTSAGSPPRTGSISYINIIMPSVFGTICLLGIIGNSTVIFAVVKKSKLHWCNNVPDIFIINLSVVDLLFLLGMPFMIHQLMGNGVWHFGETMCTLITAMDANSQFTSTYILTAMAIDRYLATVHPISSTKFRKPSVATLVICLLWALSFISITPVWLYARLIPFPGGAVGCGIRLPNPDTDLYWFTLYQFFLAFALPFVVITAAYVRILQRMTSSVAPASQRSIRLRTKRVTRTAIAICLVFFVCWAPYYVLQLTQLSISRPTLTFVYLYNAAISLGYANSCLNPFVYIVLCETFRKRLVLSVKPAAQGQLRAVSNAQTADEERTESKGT
Neuropeptide Y receptor type 1, sequence (P25929 whole entry): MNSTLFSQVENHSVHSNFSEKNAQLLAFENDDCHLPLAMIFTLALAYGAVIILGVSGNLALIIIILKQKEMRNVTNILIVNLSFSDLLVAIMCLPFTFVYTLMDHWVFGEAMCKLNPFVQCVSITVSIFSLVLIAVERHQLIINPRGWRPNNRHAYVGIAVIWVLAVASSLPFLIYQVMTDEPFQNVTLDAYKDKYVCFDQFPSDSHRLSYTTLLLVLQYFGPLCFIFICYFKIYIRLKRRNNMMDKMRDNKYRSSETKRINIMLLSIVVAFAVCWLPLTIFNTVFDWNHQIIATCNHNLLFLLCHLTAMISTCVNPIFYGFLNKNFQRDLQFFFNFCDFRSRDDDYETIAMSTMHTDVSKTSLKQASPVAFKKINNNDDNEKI
Neuropeptides B/W receptor type 1, sequence (P48145 whole entry): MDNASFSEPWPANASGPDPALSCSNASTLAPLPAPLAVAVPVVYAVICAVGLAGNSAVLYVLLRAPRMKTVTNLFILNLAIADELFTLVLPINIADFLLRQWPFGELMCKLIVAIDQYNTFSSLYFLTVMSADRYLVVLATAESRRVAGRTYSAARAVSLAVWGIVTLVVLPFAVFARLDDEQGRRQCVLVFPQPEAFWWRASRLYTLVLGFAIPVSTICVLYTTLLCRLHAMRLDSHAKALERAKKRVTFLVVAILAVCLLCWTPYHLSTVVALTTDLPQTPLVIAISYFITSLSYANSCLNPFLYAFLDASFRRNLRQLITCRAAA
5-hydroxytryptamine receptor 1E, sequence (P28566 whole entry): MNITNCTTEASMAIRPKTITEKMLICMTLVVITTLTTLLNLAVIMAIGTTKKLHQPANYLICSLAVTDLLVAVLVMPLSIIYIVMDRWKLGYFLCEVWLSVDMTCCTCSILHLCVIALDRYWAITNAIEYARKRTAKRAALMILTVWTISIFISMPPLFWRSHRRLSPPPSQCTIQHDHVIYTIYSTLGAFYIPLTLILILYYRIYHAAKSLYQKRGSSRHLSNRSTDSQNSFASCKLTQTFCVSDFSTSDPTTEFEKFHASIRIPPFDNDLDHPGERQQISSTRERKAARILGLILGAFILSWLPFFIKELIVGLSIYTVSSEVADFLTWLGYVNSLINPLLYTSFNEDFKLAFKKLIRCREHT
Lysosomal acid glucosylceramidase, sequence (P04062 whole entry): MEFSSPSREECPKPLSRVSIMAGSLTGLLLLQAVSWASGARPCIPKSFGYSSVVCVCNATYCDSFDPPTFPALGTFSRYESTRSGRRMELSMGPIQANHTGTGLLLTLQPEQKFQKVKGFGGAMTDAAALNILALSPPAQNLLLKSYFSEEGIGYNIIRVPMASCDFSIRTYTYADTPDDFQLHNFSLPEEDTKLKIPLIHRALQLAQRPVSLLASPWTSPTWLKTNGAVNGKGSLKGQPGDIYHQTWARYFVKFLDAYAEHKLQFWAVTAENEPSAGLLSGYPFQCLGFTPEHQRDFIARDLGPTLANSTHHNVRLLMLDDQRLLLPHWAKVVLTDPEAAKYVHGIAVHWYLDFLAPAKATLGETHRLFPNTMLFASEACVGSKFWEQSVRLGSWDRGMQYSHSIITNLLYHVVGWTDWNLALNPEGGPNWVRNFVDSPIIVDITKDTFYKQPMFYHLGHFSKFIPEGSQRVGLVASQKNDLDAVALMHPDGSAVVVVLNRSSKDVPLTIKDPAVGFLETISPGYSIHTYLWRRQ
Disintegrin and metalloproteinase domain-containing protein 17, sequence (P78536 whole entry, the tested form may be a part): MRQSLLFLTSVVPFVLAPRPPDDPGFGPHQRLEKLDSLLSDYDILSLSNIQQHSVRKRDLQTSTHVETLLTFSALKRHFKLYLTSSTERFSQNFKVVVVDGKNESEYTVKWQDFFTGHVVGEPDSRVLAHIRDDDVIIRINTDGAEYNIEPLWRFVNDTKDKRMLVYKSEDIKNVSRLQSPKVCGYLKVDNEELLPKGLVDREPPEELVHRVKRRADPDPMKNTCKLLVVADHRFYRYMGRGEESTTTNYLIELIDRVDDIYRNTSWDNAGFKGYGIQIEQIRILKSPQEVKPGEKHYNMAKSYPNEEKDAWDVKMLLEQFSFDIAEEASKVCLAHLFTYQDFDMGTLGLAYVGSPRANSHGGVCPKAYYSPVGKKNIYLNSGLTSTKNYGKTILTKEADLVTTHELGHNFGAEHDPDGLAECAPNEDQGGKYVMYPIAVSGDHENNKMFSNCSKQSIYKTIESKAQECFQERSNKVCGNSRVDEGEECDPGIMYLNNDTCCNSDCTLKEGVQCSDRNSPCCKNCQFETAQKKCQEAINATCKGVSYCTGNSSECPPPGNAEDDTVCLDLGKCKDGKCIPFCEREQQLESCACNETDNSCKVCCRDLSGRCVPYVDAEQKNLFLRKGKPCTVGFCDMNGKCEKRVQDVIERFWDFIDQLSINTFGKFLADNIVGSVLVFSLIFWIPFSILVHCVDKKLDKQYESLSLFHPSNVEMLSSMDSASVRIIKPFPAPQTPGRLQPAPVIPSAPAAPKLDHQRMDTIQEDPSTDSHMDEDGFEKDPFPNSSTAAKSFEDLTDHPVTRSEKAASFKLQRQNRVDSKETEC
Procathepsin L, sequence (P07711 whole entry): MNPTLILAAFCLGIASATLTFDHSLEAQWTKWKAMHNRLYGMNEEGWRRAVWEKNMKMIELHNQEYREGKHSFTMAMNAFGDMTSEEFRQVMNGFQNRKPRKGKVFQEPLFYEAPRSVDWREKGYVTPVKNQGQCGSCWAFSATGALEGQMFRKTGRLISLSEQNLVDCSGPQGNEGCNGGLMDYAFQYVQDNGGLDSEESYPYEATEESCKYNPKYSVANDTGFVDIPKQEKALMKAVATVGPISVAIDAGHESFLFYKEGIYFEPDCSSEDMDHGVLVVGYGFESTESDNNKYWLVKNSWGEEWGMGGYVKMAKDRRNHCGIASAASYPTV
Sphingosine 1-phosphate receptor 3, sequence (Q99500 whole entry): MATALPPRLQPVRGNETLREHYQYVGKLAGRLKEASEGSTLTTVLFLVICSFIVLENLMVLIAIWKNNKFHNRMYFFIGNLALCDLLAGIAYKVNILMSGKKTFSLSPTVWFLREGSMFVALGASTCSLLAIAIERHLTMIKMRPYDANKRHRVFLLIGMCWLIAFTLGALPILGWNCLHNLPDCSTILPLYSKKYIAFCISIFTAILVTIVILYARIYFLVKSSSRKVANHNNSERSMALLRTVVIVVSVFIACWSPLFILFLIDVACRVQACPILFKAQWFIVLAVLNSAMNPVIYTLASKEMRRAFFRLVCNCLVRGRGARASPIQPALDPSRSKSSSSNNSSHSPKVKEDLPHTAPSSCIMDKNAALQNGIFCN
Neuropeptide Y receptor type 2, sequence (P49146 whole entry): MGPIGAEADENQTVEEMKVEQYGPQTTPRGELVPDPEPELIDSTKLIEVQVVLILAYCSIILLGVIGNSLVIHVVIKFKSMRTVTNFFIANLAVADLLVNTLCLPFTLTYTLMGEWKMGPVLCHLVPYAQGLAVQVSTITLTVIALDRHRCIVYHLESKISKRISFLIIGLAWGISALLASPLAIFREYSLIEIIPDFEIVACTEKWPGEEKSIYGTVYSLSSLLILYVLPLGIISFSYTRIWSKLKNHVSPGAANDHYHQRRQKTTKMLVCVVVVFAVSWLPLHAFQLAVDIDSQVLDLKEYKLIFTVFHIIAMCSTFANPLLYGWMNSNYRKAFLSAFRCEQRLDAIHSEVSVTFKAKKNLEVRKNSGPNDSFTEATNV

In the case of `COc1ccc(C(C[N+](=O)[O-])c2c(-c3ccccc3)cc3ccccn23)c(OC)c1` (centres undefined), the IC50 (cells [1]) is reported as 36.3 µM (active), the CC50 [2] is reported as > 50 µM (active) and the CC50 [3] is reported as 20.3 µM (active).

For `Cc1cccc(OCC(=O)NNC(=O)c2cc3ccccc3oc2=O)c1`, the IC50 [4] was > 69.5 µM (inactive), the IC50 [5] was > 100 µM (active) and the IC50 (cells [6]) was 19.4 µM (active). The IC50 [7] was > 69.5 µM (inactive).

With `C=CCN1CCN(C(c2ccc(Cl)cc2)c2nnnn2CCc2ccc(OC)c(OC)c2)CC1` (centres undefined) the IC50 [8] was > 50 µM (not active) and the IC50 [9] was > 50 µM (not active).

For `COC(=O)c1cn(-c2ccccc2)nc1-c1cccnc1`, the EC50 [10] was > 50 µM (not active).

With `O=Cc1ccnc(-c2ccc(OC(=O)c3ccco3)cc2)n1` the AC50 [11] was 5.71 µM (active), the IC50 [12] was 6.56 µM (active) and the EC50 (Protein RecA) was 16.8 µM (active). The CC50 [13] was > 40 µM (active) and the IC50 [14] was 7.4 µM (active).

For `Cc1cccc(N=C(S)Nn2cnnc2)c1C`, the IC50 (Procathepsin L) was > 59.6 µM (not active) and the IC50 (Aspartyl aminopeptidase) was 1.9 µM (active).

With `CCOC(=O)c1c[nH]nc1N=C(S)Nc1ccc(OC)cc1` the IC50 [15] was > 14.6 µM (not active) and the IC50 [16] was > 43.8 µM (not active).

In the case of `COc1ccc(COC(=O)c2ccc3c(=O)n4c(nc3c2)CCC4)cc1F`, the EC50 [17] is reported as > 35.4 µM (not active), the EC50 (HEK293) is reported as > 35.4 µM (not active) and the EC50 [18] is reported as > 35.4 µM (not active).

For `COc1ccc2ccccc2c1/C=N/N1C(=O)CSC1=S`, the IC50 [19] was 21.1 µM (active) and the EC50 [20] was > 195 µM (not active).
